Patent publication US20260041703A1, “HYPERBRANCHED DEXTRINS FOR TOPICAL USE IN THE PREVENTION OR TREATMENT OF AT LEAST ONE SYMPTOM OF SKIN INFLAMMATION” (ROQUETTE FRERES, priority 2022, published 2026)

Columns and labels:
[1] = system: 3D reconstructed human epidermis; assay: Membrane integrity (LDH release, colorimetry) in 3D reconstructed human epidermis model; format: cell-based
Description: The aim of the study was to assess the membrane integrity of skin cells in a three-dimensional (3D) reconstructed human epidermis model, by measuring the amount of the enzyme lactate dehydrogenase (LDH) in the culture supernatant, using colorimetry. LDH is an enzyme that is released in the event of cell death. The absence of LDH secretion is a sign that the integrity of epidermal cell membranes is preserved. Samples of 3D reconstructed human epidermis were immersed in an aqueous solution containing 0.5% by weight of sodium lauryl sulfate, for 6 hours. […] The amount of LDH secreted into the supernatant was then determined colorimetrically.

IL-1β = assay: Semi-quantitative fluorescence cytokine array (Human Cytokine Array G3), IL-1β; format: cell-based; conditions: 0.5% SLS positive control (6 hours)
Description: (§1) Cell culture supernatants collected after epidermal treatment are tested using the Human Cytokine Array G3 kit (RayBiotech).
(§2) On a glass slide containing the different specific antibodies, supernatants are deposited at a rate of 100 μL per well. A cocktail of biotin-coupled secondary antibodies is then added. With the addition of streptavidin, signal intensities are detected by fluorescence. Each step is followed by several washes.
(§3) The ratios (fluorescent signal intensity of the marker in the presence of the samples/fluorescent signal intensity of the marker in the untreated control) were calculated for each treatment from n=3 epidermal culture supernatants (except for the untreated control, n=2).
(§4) A ratio >1.5 reflects overexpression of the inflammatory marker.
(§5) A ratio <0.65 indicates underexpression of the inflammatory marker.
(§6) According to the supplier's criteria, signals are usable when they are greater than the average of the background noise+2SD.

IL-8 = assay: ELISA assay of inflammation marker IL-8 in supernatant of 2D reconstructed human epidermis; format: cell-based; conditions: 0.5% SLS positive control (6 hours)
Description: After washing, HRP-streptavidin is deposited in the wells. […] The inflammatory response is interpreted as a sample-to-untreated ratio greater than or equal to 2.
A ratio greater than or equal to 2 reflects overexpression of the inflammatory marker while a ratio less than 2 indicates non-expression of the inflammatory marker.

[2] = system: reconstructed human epidermis (normal human epidermal keratinocytes, NHEK); assay: MTT cell proliferation (viability) test on 2D reconstructed human epidermis after SLS inflammation; format: cell-based; conditions: % of untreated control
Description: Irritating chemical compounds are able to penetrate the stratum corneum and are cytotoxic to cells in the underlying layers. […] Cell viability is measured upon metabolism, by mitochondrial succinic dehydrogenase, of the vital dye MTT [3-(4,5-dimethylthiazol-2-yl)-2,5-bromide diphenyltetrazolium, thiazolyl blue; EINECS number 206-069-5, CAS number 298-93-1)], to a blue formazan salt which is measured quantitatively after its extraction from tissues.
The colored solution is measured spectrophotometrically at 570 nm using the Molecular Devices Vmax microplate reader, and absorbance values are recorded using the SOFTmax PRO v4.7.1 software. Statistical analysis is performed using GraphPad Prism v5.03 software.
Cytotoxicity of samples was tested using the epidermis model and is expressed as a percentage of untreated control (UTC) tissue.

VEGF = assay: Semi-quantitative fluorescence cytokine array (Human Cytokine Array G3), VEGF; format: cell-based; conditions: 0.5% SLS positive control (6 hours)
Description: as §1, §2, §3, §4, §5, §6

RANTES = assay: Semi-quantitative fluorescence cytokine array (Human Cytokine Array G3), RANTES; format: cell-based; conditions: 0.5% SLS positive control (6 hours)
Description: as §1, §2, §3, §4, §5, §6

IL-1α [3] = assay: ELISA assay of inflammation marker IL-1α in supernatant of 2D reconstructed human epidermis; conditions: 0.5% SLS positive control (6 hours)
Description: This model comprises a monolayer of normal human epidermal keratinocytes (NHEK, one of the main cell types of the skin), which have been cultured on inert polycarbonate inserts.
The epidermises were treated with a 0.5% aqueous solution of Sodium Lauryl Sulfate (SLS) for 6 hours to create inflammation of the reconstructed epidermis, then the surface of the epidermises was rinsed with 500 μL of PBS. 20 μL of different concentrations of hydrogenated and highly branched dextrins (10 and 5% in ultrapure water) and 0.05% Betamethasone cream (Biogaran cream, a corticoid with an anti-inflammatory role) were applied topically to the epidermis for 20 hours at 37° C. No application was made for the SLS control within 20 hours of rinsing with PBS. […]
For this, cell supernatants are collected after the required treatment time and commercially available ELISA kits are used to quantitatively determine the presence of inflammatory markers.
These ELISA kits are designed for quantitative measurement of the aforementioned markers, particularly in culture supernatants using specific human antibodies. […] A developer solution changes the color from blue to yellow, and its intensity is measured at 450 nm using the Molecular Devices Vmax microplate reader. Absorbance values are recorded and analyzed using SOFTmax PRO v4.7.1 software. […]

IL-1α [4] = assay: Semi-quantitative fluorescence cytokine array (Human Cytokine Array G3), IL-1α; format: cell-based; conditions: 0.5% SLS positive control (6 hours); fluorescent signal intensity
Description: as §1, §2, §3, §4, §5, §6

## CC(C)=CCC[C@](C)(O)C1CC=C(C)CC1 (stereo partly drawn) [bisabolol]
[1]; 0.5% SLS (6 hours) + 0.5% bisabolol (20 hours)
  Membrane integrity (%): 16.8%

## CCCCCCCCCCCCOS(=O)(=O)[O-].[Na+] [SLS, Sodium Lauryl Sulfate]
IL-1β
  IL-1β Sample/Untreated ratio: 0.8
IL-8
  IL-8 Sample:Untreated ratio: 3.2
  IL-8 assayed quantity: (453 pg/mL)
[2]; 0.5% SLS positive control (6 hours)
  Viability %: 82.1%
[2]; 2% SLS positive control, mean of 3 replicates
  Viability %: 0.9%
VEGF
  VEGF Sample/Untreated ratio: 1.9
RANTES
  RANTES Sample/Untreated ratio: 6.7
IL-1α [3]
  IL-1a Sample:Untreated ratio: 2.3
  IL-1a assayed quantity: (61 pg/mL)
IL-1α [4]
  IL-1α Sample/Untreated ratio: 2.3

## C[C@H]1C[C@H]2[C@@H]3CCC4=CC(=O)C=C[C@]4(C)[C@@]3(F)[C@@H](O)C[C@]2(C)[C@@]1(O)C(=O)CO [betamethasone]
[1]; 0.5% SLS (6 hours) + 0.5% betamethasone (20 hours)
  Membrane integrity (%): 110.7%
